# Laboratory results: PubChem BioAssay (NCI)
#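 Briefly, cells in 96-well plates were exposed to five compound concentrations for 48 h, and endpoints were estimated by linear interpolation. TGI denotes the concentration required for complete inhibition of growth.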
# Experiments:
# Assay in all cases: growth of human tumour cells (NCI), 48 h
# [1] = tested on: OVCAR-5 ovarian
# [2] = tested on: CCRF-CEM leukemia
# [3] = tested on: KM12 colon
# [4] = tested on: HCC-2998 colon
# [5] = tested on: NCI-H460 lung
# [6] = tested on: M19-MEL melanoma
# [7] = tested on: UO-31 renal
# [8] = tested on: UACC-257 melanoma
# [9] = tested on: HOP-92 NSCLC
# [10] = tested on: A498 renal
# [11] = tested on: DMS 114 small cell lung
# [12] = tested on: A549 NSCLC
# [13] = tested on: COLO 205 colon
# [14] = tested on: RXF 393 renal
# [15] = tested on: ACHN renal
# [16] = tested on: SF-295 CNS
# [17] = tested on: DMS 273 small cell lung
# [18] = tested on: TK-10 renal
# [19] = tested on: IGROV1 ovarian
# [20] = tested on: MOLT-4 leukemia
# [21] = tested on: XF 498 CNS
# [22] = tested on: HT29 colon
# [23] = tested on: NCI-H23 lung
# [24] = tested on: SK-MEL-5 melanoma
# [25] = tested on: SK-MEL-2 melanoma
# [26] = tested on: SK-OV-3 ovarian
# [27] = tested on: 786-0 renal
# [28] = tested on: SN12C renal
# [29] = tested on: K-562 leukemia
# [30] = tested on: DLD-1 colon
# [31] = tested on: HL-60(TB) leukemia
# [32] = tested on: EKVX NSCLC
# [33] = tested on: OVCAR-8 ovarian
# [34] = tested on: SNB-75 CNS
# [35] = tested on: SNB-19 CNS
# [36] = tested on: HCT-116 colon
# [37] = tested on: OVCAR-4 ovarian
# [38] = tested on: LXFL 529 NSCLC
# [39] = tested on: SF-539 CNS
# [40] = tested on: HOP-62 NSCLC
# [41] = tested on: OVCAR-3 ovarian
# [42] = tested on: SK-MEL-28 melanoma
# [43] = tested on: SF-268 CNS
# [44] = tested on: KM20L2 colon
# [45] = tested on: NCI-H226 lung
# [46] = tested on: LOX IMVI melanoma
# [47] = tested on: NCI-H522 lung
# [48] = tested on: HOP-18 NSCLC
# [49] = tested on: SW-620 colon
# [50] = tested on: U251 CNS
# [51] = tested on: MALME-3M melanoma
# [52] = tested on: SR leukemia
# [53] = tested on: M14 melanoma
# [54] = tested on: HCT-15 colon
# [55] = tested on: SNB-78 CNS
# [56] = tested on: CAKI-1 renal
# [57] = tested on: UACC-62 melanoma
# [58] = tested on: RPMI-8226 leukemia
# [59] = tested on: RXF-631 renal
smiles,measurement,setting,value
CCC1CN2CCc3c([nH]c4ccccc34)C2C[C@@H]1CC(=O)N(C)C (stereo not given in full),TGI,[1],> 100 µM
same,TGI,[2],> 100 µM
same,TGI,[3],> 100 µM
same,TGI,[4],> 100 µM
same,TGI,[5],> 100 µM
same,TGI,[6],> 100 µM
same,TGI,[7],> 100 µM
same,TGI,[8],> 100 µM
same,TGI,[9],> 100 µM
same,TGI,[10],> 100 µM
same,TGI,[11],> 100 µM
same,TGI,[12],> 100 µM
same,TGI,[13],> 100 µM
same,TGI,[14],> 100 µM
same,TGI,[15],> 100 µM
same,TGI,[16],> 100 µM
same,TGI,[17],> 100 µM
same,TGI,[18],> 100 µM
same,TGI,[19],> 100 µM
same,TGI,[20],> 100 µM
same,TGI,[21],> 100 µM
same,TGI,[22],> 100 µM
same,TGI,[23],> 100 µM
same,TGI,[24],> 100 µM
same,TGI,[25],> 100 µM
same,TGI,[26],> 100 µM
same,TGI,[27],> 100 µM
same,TGI,[28],> 100 µM
same,TGI,[29],> 100 µM
same,TGI,[30],> 100 µM
same,TGI,[31],> 100 µM
same,TGI,[32],> 100 µM
same,TGI,[33],> 100 µM
same,TGI,[34],92.6 µM
same,TGI,[35],> 100 µM
same,TGI,[36],> 100 µM
same,TGI,[37],> 100 µM
same,TGI,[38],> 100 µM
same,TGI,[39],> 100 µM
same,TGI,[40],> 100 µM
same,TGI,[41],> 100 µM
same,TGI,[42],> 100 µM
same,TGI,[43],> 100 µM
same,TGI,[44],> 100 µM
same,TGI,[45],> 100 µM
same,TGI,[46],> 100 µM
same,TGI,[47],> 100 µM
same,TGI,[48],> 100 µM
same,TGI,[49],> 100 µM
same,TGI,[50],> 100 µM
same,TGI,[51],> 100 µM
same,TGI,[52],> 100 µM
same,TGI,[53],> 100 µM
same,TGI,[54],> 100 µM
same,TGI,[55],> 100 µM
COC(=O)c1c(N)n[nH]c1N,TGI,[2],> 100 µM
same,TGI,[3],> 100 µM
same,TGI,[4],> 100 µM
same,TGI,[5],> 100 µM
same,TGI,[6],> 100 µM
same,TGI,[7],> 100 µM
same,TGI,[8],> 100 µM
same,TGI,[9],> 100 µM
same,TGI,[10],> 100 µM
same,TGI,[12],> 100 µM
same,TGI,[13],> 100 µM
same,TGI,[14],> 100 µM
same,TGI,[16],> 100 µM
same,TGI,[17],> 100 µM
same,TGI,[18],> 100 µM
same,TGI,[19],> 100 µM
same,TGI,[20],> 100 µM
same,TGI,[21],> 100 µM
same,TGI,[23],> 100 µM
same,TGI,[56],> 100 µM
same,TGI,[24],> 100 µM
same,TGI,[25],> 100 µM
same,TGI,[26],> 100 µM
same,TGI,[27],> 100 µM
same,TGI,[57],> 100 µM
same,TGI,[28],> 100 µM
same,TGI,[29],> 100 µM
same,TGI,[30],> 100 µM
same,TGI,[31],> 100 µM
same,TGI,[32],> 100 µM
same,TGI,[33],> 100 µM
same,TGI,[34],> 100 µM
same,TGI,[35],> 100 µM
same,TGI,[58],> 100 µM
same,TGI,[36],> 100 µM
same,TGI,[37],> 100 µM
same,TGI,[39],> 100 µM
same,TGI,[40],> 100 µM
same,TGI,[41],> 100 µM
same,TGI,[42],> 100 µM
same,TGI,[43],> 100 µM
same,TGI,[44],> 100 µM
same,TGI,[46],> 100 µM
same,TGI,[47],> 100 µM
same,TGI,[49],> 100 µM
same,TGI,[50],> 100 µM
same,TGI,[52],> 100 µM
same,TGI,[53],> 100 µM
same,TGI,[59],> 100 µM
same,TGI,[55],> 100 µM
CN1CCC(CN2c3ccccc3Sc3ccccc32)CC1,TGI,[1],33.5 µM
same,TGI,[2],35.9 µM
same,TGI,[3],29.6 µM
same,TGI,[4],25.6 µM
same,TGI,[5],28.5 µM
same,TGI,[6],26.4 µM
same,TGI,[7],21.8 µM
same,TGI,[8],27.8 µM
same,TGI,[9],17.6 µM
same,TGI,[10],29 µM
same,TGI,[11],29.8 µM
same,TGI,[12],28.4 µM
same,TGI,[13],27.1 µM
same,TGI,[14],15.1 µM
same,TGI,[15],29.7 µM
same,TGI,[16],29.3 µM
same,TGI,[17],26.2 µM
same,TGI,[18],29.2 µM
same,TGI,[19],30.4 µM
same,TGI,[20],32.9 µM
same,TGI,[21],23.9 µM
same,TGI,[22],25.3 µM
same,TGI,[23],30 µM
same,TGI,[56],18 µM
same,TGI,[24],18.5 µM
same,TGI,[25],31 µM
same,TGI,[26],30.2 µM
same,TGI,[27],27.3 µM
same,TGI,[57],28.2 µM
same,TGI,[28],33.9 µM
same,TGI,[29],32.3 µM
same,TGI,[30],28.3 µM
same,TGI,[31],32.8 µM
same,TGI,[32],27.5 µM
same,TGI,[33],31.2 µM
same,TGI,[35],29.3 µM
same,TGI,[58],30.7 µM
same,TGI,[36],25.2 µM
same,TGI,[37],30.5 µM
same,TGI,[38],27.5 µM
same,TGI,[39],28.5 µM
same,TGI,[40],32.2 µM
same,TGI,[41],29 µM
same,TGI,[42],23.1 µM
same,TGI,[43],29 µM
same,TGI,[44],25.8 µM
same,TGI,[45],28.8 µM
same,TGI,[46],26.4 µM
same,TGI,[47],28.3 µM
same,TGI,[48],27.5 µM
same,TGI,[49],28.6 µM
same,TGI,[50],29.2 µM
same,TGI,[52],33.3 µM
same,TGI,[53],26 µM
same,TGI,[54],32.4 µM
same,TGI,[55],30 µM
Cc1[nH]c(=O)nc(N(CCO)/N=C/c2ccccc2Cl)c1C(=O)Nc1cc(Cl)cc(Cl)c1,TGI,[2],> 100 µM
same,TGI,[4],> 100 µM
same,TGI,[5],> 100 µM
same,TGI,[6],> 100 µM
same,TGI,[7],> 100 µM
same,TGI,[9],69.9 µM
same,TGI,[10],44.5 µM
same,TGI,[11],> 100 µM
same,TGI,[13],> 100 µM
same,TGI,[15],> 100 µM
same,TGI,[17],> 100 µM
same,TGI,[19],> 100 µM
same,TGI,[20],> 100 µM
same,TGI,[21],> 100 µM
same,TGI,[23],> 100 µM
same,TGI,[56],> 100 µM
same,TGI,[25],> 100 µM
same,TGI,[26],49.8 µM
same,TGI,[27],46.2 µM
same,TGI,[57],> 100 µM
same,TGI,[28],> 100 µM
same,TGI,[29],> 100 µM
same,TGI,[30],> 100 µM
same,TGI,[31],> 100 µM
same,TGI,[34],63.8 µM
same,TGI,[58],> 100 µM
same,TGI,[36],59.4 µM
same,TGI,[37],93 µM
same,TGI,[38],> 100 µM
same,TGI,[39],60.1 µM
same,TGI,[40],59.1 µM
same,TGI,[42],> 100 µM
same,TGI,[43],> 100 µM
same,TGI,[45],53.3 µM
same,TGI,[47],87.9 µM
same,TGI,[52],> 100 µM
same,TGI,[53],> 100 µM
same,TGI,[54],> 100 µM
same,TGI,[59],> 100 µM
